Results: ChEMBL document CHEMBL1909046, “DrugMatrix in vitro pharmacology data”

Assays:
Progesterone receptor = target: T1, Progesterone receptor (Bos taurus, UniProt Q690N0); test: DRUGMATRIX: Progesterone radioligand binding (ligand: [3H] R-5020); format: tissue-based, Uterus; details: Not Active = under 50% inhibition at 10 µM
T1 sequence (Q690N0 whole entry): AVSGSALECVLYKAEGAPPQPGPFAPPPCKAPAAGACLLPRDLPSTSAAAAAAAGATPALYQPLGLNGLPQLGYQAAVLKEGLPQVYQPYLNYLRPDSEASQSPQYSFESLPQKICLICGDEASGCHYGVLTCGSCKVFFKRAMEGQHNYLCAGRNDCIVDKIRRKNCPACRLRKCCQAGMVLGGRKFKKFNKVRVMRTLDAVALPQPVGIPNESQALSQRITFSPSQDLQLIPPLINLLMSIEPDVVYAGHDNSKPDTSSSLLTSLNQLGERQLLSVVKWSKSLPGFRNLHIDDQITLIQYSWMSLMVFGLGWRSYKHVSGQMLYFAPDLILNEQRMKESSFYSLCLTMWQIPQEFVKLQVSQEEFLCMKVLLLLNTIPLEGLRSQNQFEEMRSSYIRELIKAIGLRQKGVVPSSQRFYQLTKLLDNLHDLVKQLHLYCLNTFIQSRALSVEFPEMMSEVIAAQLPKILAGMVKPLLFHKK

[1] = target: T2, Neuropeptide Y receptor type 1 (Homo sapiens, UniProt P25929); format: cell membranes, Membrane; details: sk-n-mc; further: in other assays of this panel Not Active means under 50% inhibition at 10 µM
T2 sequence (P25929 whole entry): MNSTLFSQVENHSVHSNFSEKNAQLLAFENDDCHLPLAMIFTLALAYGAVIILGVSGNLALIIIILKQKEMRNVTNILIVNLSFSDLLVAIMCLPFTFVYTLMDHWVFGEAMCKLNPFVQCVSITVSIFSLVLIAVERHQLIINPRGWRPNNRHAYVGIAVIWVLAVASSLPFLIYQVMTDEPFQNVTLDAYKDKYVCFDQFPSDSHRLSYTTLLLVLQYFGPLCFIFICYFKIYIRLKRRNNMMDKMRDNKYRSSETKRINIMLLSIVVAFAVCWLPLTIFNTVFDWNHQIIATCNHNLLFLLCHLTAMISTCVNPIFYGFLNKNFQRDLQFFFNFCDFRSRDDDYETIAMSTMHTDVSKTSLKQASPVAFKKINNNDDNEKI

[2] = target: T3, C-X-C chemokine receptor type 2 (Homo sapiens, UniProt P25025); format: cell membranes, Membrane; details: cho-k1; further: in other assays of this panel Not Active means under 50% inhibition at 10 µM
T3 sequence (P25025 whole entry): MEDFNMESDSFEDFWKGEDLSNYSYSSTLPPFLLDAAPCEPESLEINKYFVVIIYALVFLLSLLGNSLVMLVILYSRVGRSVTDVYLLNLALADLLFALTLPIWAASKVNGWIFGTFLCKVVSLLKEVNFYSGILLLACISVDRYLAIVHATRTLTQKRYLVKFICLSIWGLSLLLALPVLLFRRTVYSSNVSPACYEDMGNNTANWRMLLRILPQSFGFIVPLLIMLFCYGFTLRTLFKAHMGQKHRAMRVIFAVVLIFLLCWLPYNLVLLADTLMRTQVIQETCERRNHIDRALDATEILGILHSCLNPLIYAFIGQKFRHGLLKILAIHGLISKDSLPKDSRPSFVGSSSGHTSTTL

Glycine receptor = Glycine receptor (Rattus norvegicus, UniProt P22771+P24524+P07727+P20781); format: cell membranes, Wistar, Spinal cord, Membrane; further: in other assays of this panel Not Active means under 50% inhibition at 10 µM
[3] = target: T4, Type-2 angiotensin II receptor (Homo sapiens, UniProt P50052); format: cell-based; details: cho-k1; further: in other assays of this panel Not Active means under 50% inhibition at 10 µM
T4 sequence (P50052 whole entry): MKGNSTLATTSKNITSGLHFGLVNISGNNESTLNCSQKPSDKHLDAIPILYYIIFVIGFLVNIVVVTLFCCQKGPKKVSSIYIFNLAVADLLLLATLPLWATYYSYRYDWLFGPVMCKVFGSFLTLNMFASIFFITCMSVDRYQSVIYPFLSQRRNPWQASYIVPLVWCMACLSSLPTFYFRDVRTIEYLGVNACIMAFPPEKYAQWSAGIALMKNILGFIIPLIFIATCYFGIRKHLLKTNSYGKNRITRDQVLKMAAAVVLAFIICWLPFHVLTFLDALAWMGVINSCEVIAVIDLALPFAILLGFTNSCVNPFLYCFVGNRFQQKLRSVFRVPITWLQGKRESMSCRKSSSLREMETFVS

[4] = target: T5, Nitric oxide synthase, inducible (Mus musculus, UniProt P29477); parameters: species or system Escherichia coli
T5 sequence (P29477 whole entry): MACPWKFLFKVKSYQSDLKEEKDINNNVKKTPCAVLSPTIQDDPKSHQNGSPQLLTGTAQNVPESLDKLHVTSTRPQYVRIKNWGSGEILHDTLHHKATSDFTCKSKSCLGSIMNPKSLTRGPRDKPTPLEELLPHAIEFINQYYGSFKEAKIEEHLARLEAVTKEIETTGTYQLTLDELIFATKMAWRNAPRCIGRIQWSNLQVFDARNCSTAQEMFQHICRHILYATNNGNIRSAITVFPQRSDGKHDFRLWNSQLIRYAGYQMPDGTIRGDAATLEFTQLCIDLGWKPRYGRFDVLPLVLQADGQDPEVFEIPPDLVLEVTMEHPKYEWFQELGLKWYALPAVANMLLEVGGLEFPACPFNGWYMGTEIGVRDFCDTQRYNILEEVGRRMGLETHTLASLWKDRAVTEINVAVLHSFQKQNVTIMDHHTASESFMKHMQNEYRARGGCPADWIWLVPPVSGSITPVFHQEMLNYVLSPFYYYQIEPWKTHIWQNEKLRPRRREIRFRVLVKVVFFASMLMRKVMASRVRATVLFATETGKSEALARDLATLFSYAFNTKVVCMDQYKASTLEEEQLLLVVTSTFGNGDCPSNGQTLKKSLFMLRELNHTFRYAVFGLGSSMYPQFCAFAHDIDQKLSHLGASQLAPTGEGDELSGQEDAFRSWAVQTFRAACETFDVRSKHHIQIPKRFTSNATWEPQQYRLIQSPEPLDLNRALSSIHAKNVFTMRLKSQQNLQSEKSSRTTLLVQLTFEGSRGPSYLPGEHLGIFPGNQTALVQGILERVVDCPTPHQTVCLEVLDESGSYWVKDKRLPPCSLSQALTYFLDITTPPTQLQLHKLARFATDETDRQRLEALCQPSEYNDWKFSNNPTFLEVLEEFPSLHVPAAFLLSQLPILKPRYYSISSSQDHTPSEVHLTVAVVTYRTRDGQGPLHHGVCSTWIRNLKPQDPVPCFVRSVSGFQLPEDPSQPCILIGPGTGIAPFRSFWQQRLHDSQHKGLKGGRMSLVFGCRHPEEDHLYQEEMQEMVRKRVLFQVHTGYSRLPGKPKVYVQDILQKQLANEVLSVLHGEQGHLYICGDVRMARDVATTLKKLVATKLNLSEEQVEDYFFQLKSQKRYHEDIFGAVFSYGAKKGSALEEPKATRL

[5] = target: Beta-2 adrenergic receptor (Homo sapiens, UniProt P07550); test: DRUGMATRIX: Adrenergic beta2 radioligand binding (ligand: [3H] CGP-12177); format: cell membranes, CHO, Membrane; details: cho; Not Active = under 50% inhibition at 10 µM

Measured: IC50

Chain of Beta-2 adrenergic receptor (P07550 whole entry): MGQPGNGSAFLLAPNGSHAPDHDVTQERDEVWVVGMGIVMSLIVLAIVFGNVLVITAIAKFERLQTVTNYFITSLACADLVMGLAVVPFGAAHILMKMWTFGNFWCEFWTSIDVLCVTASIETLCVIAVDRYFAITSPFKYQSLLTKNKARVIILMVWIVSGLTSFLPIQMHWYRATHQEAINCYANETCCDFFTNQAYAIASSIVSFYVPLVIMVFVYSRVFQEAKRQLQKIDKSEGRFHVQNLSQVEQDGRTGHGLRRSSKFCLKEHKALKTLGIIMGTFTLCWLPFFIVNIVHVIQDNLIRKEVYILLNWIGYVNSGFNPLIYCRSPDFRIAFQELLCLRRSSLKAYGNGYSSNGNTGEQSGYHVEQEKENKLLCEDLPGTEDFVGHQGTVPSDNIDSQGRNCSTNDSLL

COc1cc(N)nc2[nH]c(-c3ccc(F)cc3)c(-c3ccncc3)c12
Not Active: all assays above

CNS(=O)(=O)Cc1ccc2[nH]cc(CCN(C)C)c2c1
Not Active: all assays above

CCCc1nn(C)c2c(=O)[nH]c(-c3cc(S(=O)(=O)N4CCN(C)CC4)ccc3OCC)nc12
Not Active: all assays above

COc1ccc(/C=C/C(=O)Nc2ccccc2C(=O)O)cc1OC
Not Active: all assays above

CCOC(N)=O
Not Active: all assays above

CC(=O)Nc1nnc(S(N)(=O)=O)s1 [ACETAZOLAMIDE]
Not Active: all assays above

O=c1[nH]c2ccccc2n1CCCN1CCC(n2c(=O)[nH]c3cc(Cl)ccc32)CC1 [DOMPERIDONE]
Not Active: all assays above

CC1=C(CC(=O)O)c2cc(F)ccc2/C1=C\c1ccc(S(C)(=O)=O)cc1 [EXISULIND]
Not Active: all assays above

CC(C)OC(=O)C(C)(C)Oc1ccc(C(=O)c2ccc(Cl)cc2)cc1 [FENOFIBRATE]
Not Active: all assays above

OCCN1CCN(CCCN2c3ccccc3Sc3ccc(C(F)(F)F)cc32)CC1 [FLUPHENAZINE]
Not Active: all assays above

CN1C2CCCC1CC(NC(=O)c1nn(C)c3ccccc13)C2 (centres undefined) [GRANISETRON]
Not Active: all assays above

Nc1nc2c(c(=O)[nH]1)N(C=O)C(CNc1ccc(C(=O)N[C@@H](CCC(=O)O)C(=O)O)cc1)CN2 (some centres undefined) [LEUCOVORIN]
Not Active: all assays above

C[C@@H](O)[C@H]1C(=O)N2C(C(=O)O)=C(S[C@@H]3CN[C@H](C(=O)N(C)C)C3)[C@H](C)[C@H]12 [MEROPENEM]
Not Active: all assays above

CC[C@@H](CO)NC(=O)[C@@H]1C=C2c3cccc4c3c(cn4C)C[C@H]2N(C)C1 [METHYSERGIDE]
Not Active: all assays above

CCN(CC)CC#CCOC(=O)C(O)(c1ccccc1)C1CCCCC1 (centres undefined) [OXYBUTYNIN]
Not Active: all assays above

O=P(O)(O)C(O)(Cc1cccnc1)P(=O)(O)O [RISEDRONIC ACID]
Not Active: all assays above

CN(CCOc1ccc(CC2SC(=O)NC2=O)cc1)c1ccccn1 (centres undefined) [ROSIGLITAZONE]
Not Active: all assays above

C=C(C)[C@H]1Cc2c(ccc3c2O[C@@H]2COc4cc(OC)c(OC)cc4[C@@H]2C3=O)O1 [ROTENONE]
Not Active: all assays above

C#CCN(C)[C@H](C)Cc1ccccc1 [SELEGILINE]
Not Active: all assays above

CC(C)(C)NC[C@H](O)COc1nsnc1N1CCOCC1 [TIMOLOL]
not listed: [5]
Not Active: all other assays above
